Results published in patent US4501733A, “Polypeptides, a process for their preparation, their use, and a _process for the purification of polypeptides” (Ferring Arzneimittel GmbH, priority 1982, dated 1985).
Square brackets hold non-standard residues; d marks the D form. Peptide text beside a SMILES is read from it. * marks the point of attachment. Propionyl = CCC(=O)*

Tests used:
ileum from guinea pigs = assay: Inhibition of SP- or Nle-SP-induced contraction of isolated guinea pig ileum (organ bath, isotonic measurement); settings: for relative antagonistic potency (comparison of the antagonists): agonist 10^-8 M; for relative antagonistic potency (comparison of the antagonists) / Percentage inhibiting action: antagonist 10^-5 M; for Percentage inhibiting action: agonist SP or Nle-SP 10^-8 M, guinea pig ileum contraction; for substance P-antagonizing action: antagonist used in a concentration of 10^-5 M, agonist SP or Nle-SP
Text: The ileum from guinea pigs was cut out after the animals had been sacrificed, was substantially freed from mesenteria by pulling at the caudal end and was freed from digestion products with Tyrode's solution. About 25 cm were discarded from the caudal end, and several sections of intestine 4 cm long were then removed and stored in Tyrode's solution. The Tyrode's solution was gassed with carbogen (95% of O2 and 5% of CO2). The Tyrode's solution contained the following substances per liter: 8 g of NaCl; […]; 1.3 g of CaCl2.2H2 O; 2.1 g of MgCl2.6H2 O; […]; 0.58 g of NaH2 PO4.1H2 O; and 11 g of D(+)-glucose.
The Tyrode's solution was thermostatically controlled at 38° C. in an organ bath. Each preparation retained its complete contractility for 4 to 7 hours. 4 cm sections of intestine were tied on both sides and suspended in the organ bath. The contractions of the preparation were recorded under isotonic measurement conditions via a lever on a Kymograph drum. The writing was done by a felt-tip pen arranged as a lateral pen. The load arm was 225 mm and the power arm 20 mm long. The pre-load was about 0.3 g and the paper speed was 5 mm/minute. The organ bath contained 10 ml.
As a rule, the test substances were added in volumes of 2 to 100 μl, and were distributed instantaneously in the organ bath by the gassing. All the test substances added were dissolved in Tyrode's solution or diluted with Tyrode's solution from a stock solution.
Test substances: substance P (Serva) or norleucine-SP (Ferring, Kiel) were used as agonists, in doses of between 10^-9 and 10^-7 M. The following compounds were tested as potential antagonists:
In the standard test, SP or Nle-SP was applied in a concentration of between 10^-9 and 10^-7 M, and was washed out after about 2 minutes. After a latency period of a further 3 minutes, the potential antagonist was applied in a concentration of 3×10^-6, 10^-5 or 3.3×10^-5 M, directly followed by a further dose of SP (Nle-SP). After renewed washing out and a waiting time of 3 minutes, SP (Nle-SP) was again applied in the same dose, in order to investigate whether the original contraction strength is reached.
The reduction in the relative contraction of the ileum preparations as a result of using SP analogs was regarded as a measure of the relative activity as antagonists.

vasodilation = settings: Folkers et al. 1981; Rosell et al. 1981; cited from earlier work
ileum in guinea pigs = settings: Folkers et al. 1981; Rosell et al. 1981; cited from earlier work
SP-induced salivation = settings: Folkers et al. 1981; Rosell et al. 1981; cited from earlier work

| Compound | relative antagonistic potency (comparison of the antagonists) (ileum from guinea pigs) | Percentage inhibiting action (ileum from guinea pigs) | substance P-antagonizing action (ileum from guinea pigs) | inhibition of vasodilation caused by antidromic nerve stimulation and SP-induced vasodilation (vasodilation) | inhibition of the contraction of the ileum in guinea pigs caused by SP (ileum in guinea pigs) | inhibition of SP-induced salivation (SP-induced salivation) |
| --- | --- | --- | --- | --- | --- | --- |
| CSCC[C@H](NC(=O)[C@H](CC(C)C)NC(=O)[C@@H](Cc1c[nH]c2ccccc12)NC(=O)[C@H](Cc1ccccc1)NC(=O)[C@@H](Cc1c[nH]c2ccccc12)NC(=O)[C@H](CCC(N)=O)NC(=O)[C@@H](N)CCCNC(=N)N)C(N)=O [compound 2, H-Arg-Gln-D-Trp-Phe-D-Trp-Leu-Met-NH2] (H-RQ[dW]F[dW]LM-NH2) | most powerful action | 68.1 ± 8% | substance P-antagonizing action | – | – | – |
| CSCC[C@H](NC(=O)[C@H](CC(C)C)NC(=O)[C@@H](Cc1c[nH]c2ccccc12)NC(=O)[C@H](Cc1ccccc1)NC(=O)[C@@H](Cc1c[nH]c2ccccc12)NC(=O)[C@H](CCC(N)=O)NC(=O)[C@@H]1CCCN1)C(N)=O [compound 3, H-Pro-Gln-D-Trp-Phe-D-Trp-Leu-Met-NH2] (H-PQ[dW]F[dW]LM-NH2) | most powerful action | 69.5 ± 0.5% | substance P-antagonizing action | – | – | – |
| CCC(=O)N[C@@H](CCC(N)=O)C(=O)N[C@H](Cc1c[nH]c2ccccc12)C(=O)N[C@@H](Cc1ccccc1)C(=O)N[C@H](Cc1c[nH]c2ccccc12)C(=O)N[C@@H](CC(C)C)C(=O)N[C@@H](CCSC)C(N)=O [compound 4, Propionyl-Gln-D-Trp-Phe-D-Trp-Leu-Met-NH2] (Propionyl-Q[dW]F[dW]LM-NH2) | lower but significant inhibiting action | 29.3 ± 9.5% | substance P-antagonizing action | – | – | – |
| D-Pro^2, D-Phe^7 and D-Trp-^9 -SP | – | – | – | inhibit | inhibit | inhibit |
